From ChEMBL document CHEMBL4190354, “A Realistic View on "The Essential Medicinal Chemistry of Curcumin"” (ACS Med Chem Lett, 2017)

Columns and labels:
[1] = Elimination half life in Sprague-Dawley rat at 500 mg/kg, po by LC-MS/MS analysis; assay type: ADME, organism-based; conditions: in vivo, read-out: beta t1/2
[2] = Elimination half life in Sprague-Dawley rat at 10 mg/kg, iv by LC-MS/MS analysis; assay type: ADME, organism-based; conditions: in vivo, read-out: beta t1/2

half-life [1]: 44.5 min | half-life [2]: 28.1 min
Structure (SMILES): COc1cc(/C=C/C(=O)CC(=O)/C=C/c2ccc(O)c(OC)c2)ccc1O [CURCUMIN]
